From the NIST ThermoML archive (doi:10.1016/j.jct.2011.02.008)

Assay: xn = mol fraction of the nth substance listed
Conditions: Liquid, Vibrating tube method

COC(=O)c1ccccc1 [methyl benzoate] + CCCCCCO
mass density [kg/m3]
Conditions	x1 = 0.1004	x1 = 0.2007	x1 = 0.3007	x1 = 0.4013	x1 = 0.5005	x1 = 0.6009	x1 = 0.7	x1 = 0.8008	x1 = 0.9009
338.15 K, 45000 kPa	–	–	–	–	945.5	971.4	997.1	1023.3	1049.5
338.15 K, 50000 kPa	845.7	871.2	897	922.9	948.5	974.4	1000.1	1026.4	1052.5
338.15 K, 55000 kPa	848.6	874.1	899.9	925.8	951.4	977.4	1003.1	1029.3	1055.5
338.15 K, 60000 kPa	851.4	876.8	902.8	928.7	954.3	980.1	1005.8	1032	1058.2
348.15 K, 100 kPa	802.6	827.8	853.4	879.1	904.6	930.4	956.1	982.5	1008.8
348.15 K, 1000 kPa	803.3	828.6	854.2	879.9	905.4	931.3	956.9	983.2	1009.5
348.15 K, 5000 kPa	807	832.2	857.7	883.4	908.8	934.7	960.3	986.6	1012.9
348.15 K, 10000 kPa	811.2	836.4	861.9	887.6	913	938.8	964.4	990.7	1016.9
348.15 K, 15000 kPa	815.2	840.4	865.9	891.4	917	942.8	968.4	994.6	1020.7
348.15 K, 20000 kPa	819	844.2	869.7	895.4	920.8	946.6	972.1	998.3	1024.4
348.15 K, 25000 kPa	822.7	847.9	873.4	899.1	924.5	950.2	975.8	1001.9	1028
348.15 K, 30000 kPa	826.2	851.4	877	902.6	928	953.8	979.3	1005.4	1031.5
348.15 K, 35000 kPa	829.6	854.8	880.4	906	931.4	957.2	982.7	1008.9	1034.9
348.15 K, 40000 kPa	832.9	858.1	883.7	909.3	934.7	960.5	986	1012.2	1038.2
348.15 K, 45000 kPa	836.1	861.3	886.9	912.5	938	963.7	989.3	1015.4	1041.4
348.15 K, 50000 kPa	839.1	864.4	890	915.7	941.1	966.9	992.4	1018.5	1044.5
348.15 K, 55000 kPa	842.1	867.4	893	918.7	944.2	969.9	995.5	1021.6	1047.6
348.15 K, 60000 kPa	844.9	870.2	895.8	921.5	947	972.8	998.2	1024.6	1050.4
358.15 K, 100 kPa	794.1	819.1	844.4	869.9	895.3	921	946.6	972.8	999
358.15 K, 1000 kPa	795	820	845.3	870.8	896.1	921.7	947.4	973.6	999.8
358.15 K, 5000 kPa	798.7	823.7	849	874.5	899.8	925.5	951	977.2	1003.3
358.15 K, 10000 kPa	803.1	828.2	853.5	878.9	904.2	929.9	955.3	981.4	1007.5
358.15 K, 15000 kPa	807.4	832.4	857.7	883.1	908.4	934	959.5	985.5	1011.6
358.15 K, 20000 kPa	811.4	836.4	861.7	887.1	912.3	938	963.4	989.5	1015.5
358.15 K, 25000 kPa	815.3	840.3	865.6	891	916.2	941.8	967.3	993.3	1019.3
358.15 K, 30000 kPa	818.9	844	869.3	894.7	919.9	945.5	970.9	996.9	1022.9
358.15 K, 35000 kPa	822.4	847.6	872.8	898.3	923.5	949.1	974.5	1000.5	1026.5
358.15 K, 40000 kPa	825.9	851	876.3	901.7	926.9	952.6	978	1003.9	1029.9
358.15 K, 45000 kPa	829.2	854.3	879.6	905.1	930.3	956	981.3	1007.3	1033.2
358.15 K, 50000 kPa	832.4	857.5	882.9	908.3	933.6	959.3	984.6	1010.6	1036.5
358.15 K, 55000 kPa	835.5	860.7	886	911.5	936.7	962.4	987.8	1013.7	1039.7
358.15 K, 60000 kPa	838.5	863.5	889.1	914.4	939.8	965.3	990.7	1016.9	1042.6
